Literature values in US20090068264A1, “Clinical Applications of Tetrahydrobiopterin, Lipoic Acid and Their Salts and Methods of Preparing Tetrahydrobiopterin Bis-Lipoate” (ChronoRX LLC, priority 2005, published 2009).

Tested on: cerebral ischemia-reperfusion
Conditions: animal studies of cerebral ischemia; after LA pretreatment; reduced from 78% without pretreatment

SMILES: O=C(O)CCCCC1CCSS1 (stereo not shown) [LA, 1,2-dithiolane-3-pentanoic acid]
- mortality rate during 24 hours of reperfusion: 26%
